Results taken from patent US7507739B2, “6-[(substituted)phenyl]triazolopyrimidines as anticancer agents” (Wyeth, priority 2003, dated 2009).

Tests used:
[1] = system: COLO 205 cells; assay: MTS cytotoxicity test with COLO 205 cells; assay type: cell-based, human; details: 3 days
Experimental: The assay, which is sold in kit form by Promega (Madison, Wis.; CellTiter 96 AQueous Non-Radioactive Cell Proliferation Assay), is based on the conversion by viable cells, but not by dead cells, of the tetrazolium salt, MTS (3-(4,5-dimethylthiazol-2-yl)-5-(3-carboxymethoxyphenyl)-2-(4-sulphophenyl)-2H-tetrazolium, inner salt), into a water-soluble colored formazan which is detected by spectrophotometry. Compounds are tested at nine concentrations, in order to determine IC50 values. For the test procedure, cells are harvested by trypsinization (or, in the case of non-adherent cells, by simple resuspension), washed, counted and distributed to wells of 96-well flat-bottom microtiter plates at 1000 cells per well in 200 μL of medium. In addition, one row of wells on a separate plate received cells as above (“time 0” plate). All plates are incubated at 37° in humidified 5% CO2 in air for about 24 hr.
On day 2, compounds for test are diluted and added to wells. Compounds are dissolved in DMSO at 10 mg/mL. For each compound, nine serial 2-fold dilutions are prepared in DMSO. Ten μL of each dilution in DMSO is transferred to 100 μL of medium, mixed well, and then 5 μL of this dilution is transferred in quadruplicate to wells containing cells. The final high concentration of each compound is typically 5 μM. Plates are returned to the incubator for three days. At the time of drug addition to the experimental plates, the MTS assay is run on the “time 0” plate. This produced the “time 0 MTS value” which is related to the number of viable cells per well at the time of drug addition.
After three days of culture with test compounds (day 5 overall), the MTS assay is done on all wells of the experimental plates. The absorbance values of the quadruplicate sample wells are averaged and divided by the average of the “time 0” values. The average of control wells without drug, divided by the average “time 0” value, gave the maximal relative increase in MTS color yield due to cell growth during the final three days of culture. The average of control wells with high drug concentration, divided by the “time 0” value, gave the minimal relative color yield for cells that are completely killed. The nine values for each compound are plotted against concentration, and the concentration that produced a relative color yield half way between the maximum and minimum is taken as the IC50 value.
COLO 205 is a human colon carcinoma cell line that is used for comparative testing of the examples of this invention and several reference compounds. This line is sensitive to paclitaxel and vincristine.

[2] = system: DLD1 Human Colon Carcinoma; assay: Human tumor xenograft test, DLD1; assay type: in vivo; details: DLD1, 15 mg/kg intravenously on days 1, 5, 9, and 13
Experimental: (§1) The ability of compounds of this invention to inhibit tumor growth in animals is studied in the athymic mouse xenograft standard pharmacological test. Female nu/nu mice in an outbred albino background are obtained from Charles River Laboratories (Wilmington, Mass.). Animals are injected subcutaneously on the flank with the desired tumor cell suspension. Several days later, mice with tumors of approximately 150 mm^3 are selected from those injected (staged) and randomly distributed into groups of 5-10. The day of staging is called day 0. Compounds of the invention, usually formulated in saline (exceptions are noted in tables), are administered to animals by intravenous injection or oral gavage on various schedules starting on day 0 or 1, as noted in the tables. The control group in each experiment is dosed with vehicle on the same schedule. Tumor size is measured every 3-7 days with calipers in two orthogonal dimensions, and tumor volume is calculated from the formula volume=[(length×width^2)/2].
(§2) Tumor/Control (T/C) is obtained by dividing the mean tumor volume of the treated group by the mean tumor volume of the control group on each measurement day. A treatment dose is defined as active if it produced a statistically significant T/C of 0.50 or less. A p value≦0.05, determined by one-side Student's t-test, is required for statistical significance. A treatment dose is defined as toxic if more than 10% of the animals died from a compound-related toxicity.

[3] = system: A549 Human Non-Small Cell Lung Carcinoma; assay: Human tumor xenograft test, A549; assay type: in vivo, athymic mice; details: A549, intravenously q4dX8 at 40 mg/kg
Experimental: as §1, §2

| SMILES | IC50 ([1]; Homo sapiens, COLO 205, 72 h) [µM] | also measured |
| --- | --- | --- |
| C[C@H](Nc1c(-c2c(F)cc(OCCCN(C)C)cc2F)c(Cl)nc2ncnn12)C(F)(F)F [Example 1, 5-Chloro-6-{4-[3-(dimethylamino)propoxy]-2,6-difluorophenyl}-N-[(1S)-2,2,2-trifluoro-1-methylethyl][1,2,4]triazolo[1,5-a]pyrimidin-7-amine] | – | IC50 [1]: 0.041 µM; tumor growth inhibition (activity call) [2]: active |
| CN(C)CCCOc1cc(F)c(-c2c(Cl)nc3ncnn3c2NCC(F)(F)F)c(F)c1 [Example 4, 5-Chloro-6-{4-[3-(dimethylamino)propoxy]-2,6-difluorophenyl}-N-(2,2,2-trifluoroethyl)[1,2,4]triazolo[1,5-a]pyrimidin-7-amine] | – | tumor growth inhibition (activity call) [3]: inhibited the growth |
| C[C@H](Nc1c(-c2c(F)ccc(OCCCCN(C)C)c2F)c(Cl)nc2ncnn12)C(F)(F)F [Example 29, 5-Chloro-6-{3-[4-(dimethylamino)butoxy]-2,6-difluorophenyl}-N-[(1S)-2,2,2-trifluoro-1-methylethyl][1,2,4]triazolo[1,5-a]pyrimidin-7-amine] | 0.433 | – |
| CN(C)CCCOc1cc(F)c(-c2c(Cl)nc3ncnn3c2C2CCCCCC2)c(F)c1 [Example 31, 3-[4-(5-Chloro-7-cycloheptyl[1,2,4]triazolo[1,5-a]pyrimidin-6-yl)-3,5-difluorophenoxy]-N,N-dimethylpropan-1-amine] | 0.019 | – |
| CNCCCOc1cc(F)c(-c2c(Cl)nc3ncnn3c2N[C@H](C)C(F)(F)F)c(F)c1 [Example 33, 5-Chloro-6-{2,6-difluoro-4-[3-(methylamino)propoxy]phenyl}-N-[(1R)-2,2,2-trifluoro-1-methylethyl][1,2,4]triazolo[1,5-a]pyrimidin-7-amine] | 0.126 | – |
